Target: T1, RORγ (Mus musculus, UniProt P51450)
T1 construct: mRORγ (Pro-261-end); expressed in transfected cells
T1 sequence (P51450 261-516 limits assumed): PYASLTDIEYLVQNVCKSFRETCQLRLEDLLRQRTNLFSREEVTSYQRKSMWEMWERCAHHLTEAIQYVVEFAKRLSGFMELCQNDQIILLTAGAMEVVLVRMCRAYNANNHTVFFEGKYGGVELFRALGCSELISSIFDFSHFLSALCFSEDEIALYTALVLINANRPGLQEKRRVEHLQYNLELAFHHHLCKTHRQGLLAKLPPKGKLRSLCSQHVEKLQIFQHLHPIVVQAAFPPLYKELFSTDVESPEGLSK
Assay: Gal4-RORγ-LBD UAS-luciferase reporter assay in TRex-CHO-K1 cells (doxycycline-stimulated)
Format: cell-based
Details: individual controls 1295.201-307, 5 μg/ml, triplicate
Description: The Gal4-DBD-ROR-LBD fusion proteins were subcloned in the pcDNA4/TO expression vector (Thermo Scientific) and transfected into TRex-CHO-K1 cells (Thermo Scientific) for tetracycline-controlled expression of the corresponding ROR proteins. Transfected cells were selected with hygromycin and Zeocin and individual clones for each of the Gal4-RORγ, Gal4-RORα, and Gal4-RORβ cell lines were isolated using a standard serial dilution protocol. Clones with the highest doxycycline-dependent stimulation of luciferase activity were selected for all functional experiments.
For screening FIU libraries, cells were resuspended in Ham’s F-12 assay medium containing 2% charcoal-treated FBS and no selection drugs. […] Cells were allowed to attach for 2 h, followed by compound treatment and stimulation with 20 ng/mL doxycycline for an additional 16–20 h. Appropriate solvent controls, negative controls with no doxycycline, and blanks with no cells were included in every plate. Prior to measuring luciferase activity, 6 µL of 0.15 mg/mL resazurin (Cayman Chemical) in PBS were added and cells were incubated for 1 h at 37 °C. Fluorescence intensity was detected at 545 nm excitation/590 nm emission using a CLARIOstar reader (BMGLabtech) as a measure of cell viability, to identify any potential cytotoxic effect of test compounds and mixtures.
Luminescence was normalized by the fluorescence intensity and the percentage of inhibition was calculated with respect to control cells stimulated with doxycycline in the presence of solvent control (0.1% DMF). All primary screens with individual compounds were performed in triplicate with a final concentration of 5 µg/mL. […] IC50 values were calculated using GraphPrism (GraphPad software).

| Structure (SMILES) | % Inhibition RORγ 5 μg/ml [%] |
| --- | --- |
| O=C(Cc1ccccc1)NC1=NC[C@H](c2ccccc2)N1CCc1ccccc1 [1295.219] | 0.1 |
| CCC(C)CN1C(NC(=O)Cc2ccccc2)=NCC1Cc1ccccc1 (mixture of isomers) [1295.256] | -8.1 |
| COc1ccc(CC(=O)NC2=NC[C@H](Cc3ccccc3)N2CCc2ccccc2)cc1OC [1295.287] | 54.7 |
| COc1cccc(CCN2C(NC(=O)Cc3ccccc3)=NC[C@@H]2Cc2ccccc2)c1 [1295.241] | 7.4 |
| CC(C)(C)CN1C(NC(=O)Cc2ccccc2)=NC[C@@H]1Cc1ccccc1 [1295.259] | -25.1 |
| CCOc1ccc(C[C@H]2CN=C(NC(=O)Cc3ccccc3)N2CCc2ccccc2)cc1 [1295.233] | 31.0 |
| Cc1cccc(CCN2C(NC(=O)Cc3ccccc3)=NC[C@@H]2Cc2ccccc2)c1 [1295.237] | -4.8 |
| O=C(Cc1ccccc1)NC1=NC[C@H](Cc2ccccc2)N1CC1CCCCC1 [1295.260] | -10.7 |
| O=C(Cc1ccccc1)NC1=NC[C@H](Cc2ccccc2)N1CCCC1CCCC1 [1295.267] | 56.2 |
| CCCCCCC(=O)NC1=NC[C@H](Cc2ccccc2)N1CCc1ccccc1 [1295.294] | 44.3 |
| CC(C)Cc1ccc(C(C)CN2C(NC(=O)Cc3ccccc3)=NCC2Cc2ccccc2)cc1 (mixture of isomers) [1295.245] | 21.5 |
| COc1ccc(CCN2C(NC(=O)Cc3ccccc3)=NC[C@@H]2Cc2ccccc2)cc1OC [1295.249] | 42.2 |
| O=C(Cc1ccccc1)NC1=NC[C@H](Cc2ccccc2)N1CC1CCCC1 [1295.266] | 99.6 |
| CC(C)CCC(=O)NC1=NC[C@H](Cc2ccccc2)N1CCc1ccccc1 [1295.297] | 62.2 |
| O=C(Cc1ccc(Br)cc1)NC1=NC[C@H](Cc2ccccc2)N1CCc1ccccc1 [1295.280] | 42.0 |
| CC(C)Cc1ccc(C(C)C(=O)NC2=NCC(Cc3ccccc3)N2CCc2ccccc2)cc1 (mixture of isomers) [1295.283] | 58.6 |
| O=C(Cc1ccc(-c2ccccc2)cc1)NC1=NC[C@H](Cc2ccccc2)N1CCc1ccccc1 [1295.285] | 11.1 |
| CCOc1ccc(C[C@@H]2CN=C(NC(=O)Cc3ccccc3)N2CCc2ccccc2)cc1 [1295.234] | -7.7 |
| CCCC[C@@H]1CN=C(NC(=O)Cc2ccccc2)N1CCc1ccccc1 [1295.218] | -11.7 |
| O=C(Cc1ccccc1)NC1=NC[C@H](Cc2ccccc2)N1CCCc1ccccc1 [1295.251] | -112.4 |
| O=C(Cc1cccc(F)c1)NC1=NC[C@H](Cc2ccccc2)N1CCc1ccccc1 [1295.276] | 104.2 |
| CC(C)CN1C(NC(=O)Cc2ccccc2)=NC[C@@H]1Cc1ccccc1 [1295.255] | -9.8 |
| O=C(Cc1ccccc1)NC1=NC[C@H](Cc2ccc(O)cc2)N1CCc1ccccc1 [1295.207] | -85.0 |

| Structure (SMILES) | % Inhibition RORγ 5 μg/ml [%] |
| --- | --- |
| COc1cccc(CC(=O)NC2=NC[C@H](Cc3ccccc3)N2CCc2ccccc2)c1 [1295.279] | 75.2 |
| CC(C)(C)[C@@H]1CN=C(NC(=O)Cc2ccccc2)N1CCc1ccccc1 [1295.232] | 8.2 |
| O=C(Cc1ccccc1)NC1=NC[C@@H](Cc2ccc(Cl)cc2)N1CCc1ccccc1 [1295.226] | 6.9 |
| O=C(Cc1ccccc1)NC1=NC[C@@H](CC2CCCCC2)N1CCc1ccccc1 [1295.224] | 9.6 |
| COc1ccc(CCCN2C(NC(=O)Cc3ccccc3)=NC[C@H]2Cc2ccccc2)cc1OC [1295.247] | 32.5 |
| O=C(Cc1ccccc1)NC1=NCCN1CCc1ccccc1 [1295.203] | -29.5 |
| O=C(Cc1ccccc1)NC1=NC[C@@H](Cc2cccnc2)N1CCc1ccccc1 [1295.230] | -16.0 |
| O=C(NC1=NC[C@H](Cc2ccccc2)N1CCc1ccccc1)C1CCC1 [1295.302] | 24.7 |
| O=C(CCC1CCCC1)NC1=NC[C@H](Cc2ccccc2)N1CCc1ccccc1 [1295.304] | 45.5 |
| O=C(Cc1ccccc1)NC1=NC[C@H](CC2CCCCC2)N1CCc1ccccc1 [1295.223] | 3.4 |
| O=C(Cc1ccccc1)NC1=NC[C@H](Cc2ccccc2)N1CCc1cccc(F)c1 [1295.238] | 34.6 |
| O=C(Cc1ccccc1)NC1=NC[C@H](Cc2cccnc2)N1CCc1ccccc1 [1295.229] | -23.1 |
| CC(C)C[C@H]1CN=C(NC(=O)Cc2ccccc2)N1CCc1ccccc1 [1295.205] | 54.1 |
| C[C@@H]1CN=C(NC(=O)Cc2ccccc2)N1CCc1ccccc1 [1295.208] | -9.3 |
| O=C(CCCc1ccccc1)NC1=NC[C@H](Cc2ccccc2)N1CCc1ccccc1 [1295.290] | 60.2 |
| CCC(C)C(=O)NC1=NCC(Cc2ccccc2)N1CCc1ccccc1 (mixture of isomers) [1295.296] | 41.7 |
| O=C(Cc1cccc(Br)c1)NC1=NC[C@H](Cc2ccccc2)N1CCc1ccccc1 [1295.277] | 97.6 |
| O=C(Cc1ccccc1)NC1=NC[C@@H](Cc2ccccc2)N1CCc1ccccc1 [1295.209] | 46.8 |
| CC(CCN1C(NC(=O)Cc2ccccc2)=NCC1Cc1ccccc1)c1ccccc1 (mixture of isomers) [1295.236] | 26.8 |
| O=C(Cc1ccc(F)cc1)NC1=NC[C@H](Cc2ccccc2)N1CCc1ccccc1 [1295.278] | 29.8 |
| CC(C)[C@@H]1CN=C(NC(=O)Cc2ccccc2)N1CCc1ccccc1 [1295.212] | 33.3 |
| O=C(Cc1ccccc1)NC1=NC[C@H](Cc2ccccc2)N1CCc1ccccc1 [1295.202] | 0.0 |
| CC(=O)NC1=NC[C@H](Cc2ccccc2)N1CCc1ccccc1 [1295.301] | 15.4 |

| Structure (SMILES) | % Inhibition RORγ 5 μg/ml [%] |
| --- | --- |
| O=C(Cc1ccccc1)NC1=NC[C@@H](Cc2ccc3ccccc3c2)N1CCc1ccccc1 [1295.222] | 22.4 |
| O=C(Cc1ccccc1)NC1=NC[C@H](Cc2ccccc2)N1CCc1ccccc1 [1295.291] | 5.6 |
| CCCC[C@H]1CN=C(NC(=O)Cc2ccccc2)N1CCc1ccccc1 [1295.217] | 13.0 |
| O=C(Cc1ccccc1)NC1=NC[C@H](Cc2ccccc2)N1CCc1cc(C(F)(F)F)cc(C(F)(F)F)c1 [1295.246] | 20.0 |
| CCc1ccc(-c2ccc(C(=O)NC3=NC[C@H](Cc4ccccc4)N3CCc3ccccc3)cc2)cc1 [1295.292] | 48.3 |
| O=C(Cc1ccccc1)NC1=NC[C@H](Cc2ccc(Cl)cc2)N1CCc1ccccc1 [1295.225] | -32.6 |
| CCOc1ccc(CC(=O)NC2=NC[C@H](Cc3ccccc3)N2CCc2ccccc2)cc1 [1295.282] | -2.3 |
| O=C(Cc1ccccc1)NC1=NC[C@H](Cc2ccc3ccccc3c2)N1CCc1ccccc1 [1295.221] | 31.3 |
| CCC(CN1C(NC(=O)Cc2ccccc2)=NCC1Cc1ccccc1)c1ccccc1 (mixture of isomers) [1295.235] | 35.8 |
| CC(C)C[C@@H]1CN=C(NC(=O)Cc2ccccc2)N1CCc1ccccc1 [1295.211] | 38.8 |
| O=C(Cc1ccccc1)NC1=NC[C@@H](Cc2ccc(F)cc2)N1CCc1ccccc1 [1295.228] | 31.3 |
| COc1ccc(CC(=O)NC2=NC[C@H](Cc3ccccc3)N2CCc2ccccc2)cc1 [1295.281] | 52.6 |
| O=C(Cc1ccccc1)NC1=NC[C@H](Cc2ccccc2)N1CCCCc1ccccc1 [1295.252] | -2.3 |
| O=C(Cc1ccccc1)NC1=NC[C@H](Cc2ccccc2)N1CC1CCCCCC1 [1295.263] | -8.4 |
| CC1(C)CN=C(NC(=O)Cc2ccccc2)N1CCc1ccccc1 [1295.214] | 1.6 |
| O=C(Cc1ccccc1)NC1=NC[C@H](Cc2ccccc2)N1CCc1ccc(Br)cc1 [1295.242] | 67.1 |
| CCCCN1C(NC(=O)Cc2ccccc2)=NC[C@@H]1Cc1ccccc1 [1295.253] | -12.1 |
| CCOc1ccc(CCN2C(NC(=O)Cc3ccccc3)=NCC2Cc2ccccc2)cc1 (stereo not shown) [1295.244] | 5.9 |
| CCN1C(NC(=O)Cc2ccccc2)=NC[C@@H]1Cc1ccccc1 [1295.264] | 7.5 |
| CCC[C@H]1CN=C(NC(=O)Cc2ccccc2)N1CCc1ccccc1 [1295.215] | 31.5 |
| COc1ccc(CCN2C(NC(=O)Cc3ccccc3)=NC[C@@H]2Cc2ccccc2)cc1 [1295.243] | 27.2 |
